Laboratory results: US9669100B2, “Polymer support for the distribution of a naturally crystalline substance and production method” (priority 2013, dated 2017)

Key:
[1] = Stability of the active solution (limpid, no recrystallisation); assay type: physicochemical; settings: ESTASOL/ARLASOLVE DMI plus refined coconut oil; after stirring (30 min Example 1, 20 min Example 3)
Description: In a 1 liter beaker, the following products are successively introduce with stirring:
And then introduce by sprinkling while still stirring:
After completely dissolving, pour while still stirring:
300 g refined coconut oil.
In a 1 liter beaker, the following are successively added under stirring:
100 g refined coconut oil.
All is stirred for 20 minutes until the active solution becomes limpid.

[2] = Solubilisation of naturally crystalline substances in the solvent mixture (dibasic esters / dimethyl isosorbide); assay type: physicochemical; settings: solvent mixture solvent/cosolvent

With `Cn1c(=O)c2c(ncn2C)n(C)c1=O` [Caffeine] the “state of the active solution after preparation” value [1] was “does not recrystallise”.
For `CC1(C)[C@H](C(=O)O[C@H](C#N)c2cccc(Oc3ccccc3)c2)[C@@H]1C=C(Br)Br` [Deltamethrin], the “maximum concentration possible without recrystallization in the active solution” value ([2]; cold solution, even at low temperature) was no more than 20 % by weight.
For `CNC(=O)Oc1ccccc1OC(C)C` [Propoxur], the “concentration dissolved in a stable manner in the solvent mixture” value [2] was 56 % by weight of solution.
